Data on three compounds can be found in patent publication US20230226135A9, “ACETYLCHOLINE MODULATION OF IMMUNE FUNCTION” (BCell Solutions, Inc., priority 2019, published 2023).

The subject of data set [1] is splenic B cells. Put plainly: alpha 7 nAChR expression on splenic B cells after TLR 9 agonist CpG (flow cytometry). Particulars: after CpG treatment. Type of data set: cell-based, mouse. The method, then:
Cell Culture. Mice were sacrificed and spleens were removed. The tissues were dissociated, from which single cell suspensions were made by passing the spleens through 40 μm cell strainers. Red blood cells were lysed using ACK Buffer (Sigma, Inc). Cells were then cultured with TLR ligands at the designated concentrations at 1.010^6 cells/mL in 6 well plates. Cells were grown in RPMI 1640 (Invitrogen) supplemented with 5% fetal bovine serum (Invitrogen) in a humidified 5% CO2 incubator at 37° C. for the designated time period.
Isolation of Splenic Cells. Splenocytes were isolated from 8 week old C57BL/6J mice. Following sacrifice, spleens were removed and splenocytes isolated as above. Cells were then resuspended in complete RPMI and were cultured with the TLR ligands at the designated concentrations at 10^6 cells/mL in 6 well plates. […]
Antibodies and Flow Cytometry. […] Following staining, cells were analyzed comparing each level of staining to the appropriate isotype control on a Beckman Coulter Cytoflex benchtop flow cytometer. Data was analyzed using FlowJo software (Tree Star Inc.).
In FIG. 1A the X-axis represents fluorescence intensity of MHC class II expression on untreated splenic B cells from a C57BL6 mouse. […] The X axis reflects the relative fluorescence intensity before (green histogram) and after treatment with the TLR 9 agonist CpG (blue histogram).
Background: In flow cytometry, cells or beads pass a laser one at a time.

The test system of the next data set is CLIP+ B cells. Put plainly: CFA-induced arthritis model, CAP depletion of B cells with or without α7nAChR antagonist. The data set is classed as in vivo, mice. Particulars: co-treated with CAP, CFA model. The method, then: FIGS. 11A-11B. […] In this study, CAP was administered at 3 days after CFA, then once daily every 3 days, until day 10 after CFA.
The next series of experiments are focused on the effects of CAP on splenic immune cells. […] As part of this experiment, the mice were co-treated with CAP and the alpha-7 nicotinic acetylcholine receptor (α7nAChR) antagonist, methyllycaconitine (MCA).

Data set [2] relates to splenic B cells. Put plainly: CFA-sensitized mice treated with Peptide with or without MLA, FACS of splenic B cells. The data set is classed as in vivo. The method, then: SUMMARY: A study was conducted to evaluate a potential alpha7 nAChR anti-inflammatory mechanism of the MKR-4 peptide, using the alpha7 nAChR antagonist methyllycaconitine (MLA). After enrollment, animals in Groups 2-4 were sensitized ID at the base of the tail with 0.1 mL FCA on Day 1. On Days 2, 3, 5 & 7 Groups were then dosed intraperitoneally (IP) with either: peptide and MLA in combination (2 mg/kg and 6 mg/kg, respectively); peptide (2 mg/kg) and MLA vehicle (saline) in combination; or peptide vehicle (saline) and MLA vehicle (saline). Animals were dosed once on Study Day 2 (MLA or MLA vehicle), and Days 3, 5 & 7 (Peptide or Peptide vehicle, MLA or MLA vehicle) as described in Table 2 below. Body weights were recorded on Study Days 0 & 8. Mice were euthanized for necropsy on Study Day 8, and serum and whole spleens were collected from all animals and sent to the sponsor for internal FACS analysis. Toxicity and Peptide mechanistic evaluation was based on absolute body weight change, spleen weights and sponsor FACS analysis (not included in report).
Antibodies and Flow Cytometry. Single cell suspensions were made of tissues or cells harvested from culture and stained with the following monoclonal antibodies: a monoclonal antibody directed against mouse alpha 7 nicotinic acetylcholine receptor (alpha 7 nAChR) (Santa Cruz Biotechnology); anti-mouse MHC Class II (M5114), and anti-mouse CLIP 15G4, Santa Cruz. Following staining, cells were analyzed comparing each level of staining to the appropriate isotype control on a Beckman Coulter Cytoflex benchtop flow cytometer. Data was analyzed using FlowJo software (Tree Star Inc.).
Experimental Design: On Study Day 0, mice were weighed and randomized by body weight into treatment groups. Following randomization, on Study Day 1, Groups 2-4 were sensitized ID at the base of the tail with 0.1 mL of FCA. When MLA and Peptide (FRIMAVLAS (SEQ ID NO: 389))—or their vehicles—were dosed on the same day, the MLA antagonist or vehicle was dosed 1 hour before the Peptide or its vehicle.
On Study Day 8, mice were anesthetized with Isoflurane (VetOne, Cat #502017) and bled to exsanguination followed by cervical dislocation for necropsy and tissue collection.

A further data set deals with CD8+ T cells. Put plainly: CAP-induced expansion of CD8+ T cells with or without α7nAChR antagonist. Particulars: with CAP. Type of data set: in vivo.
A short description of data set [3]: Dosing formulation storage and stability. The data set is classed as physicochemical. Particulars: 0.6 mg/mL in saline, frozen at -20 C. The method, then:
Test Article Formulation Instructions & Calculations: Peptide dosing solution (0.2 mg/mL) was made fresh daily within 1 hour of use by diluting 0.09 mL of 5 mg/mL DMSO stock into 2.11 mL sterile saline. DMSO stock was kept at 4 C, then refrozen (to avoid repeated freeze-thaw cycles). Still, stock was relatively “solid” even at 4 C.
MLA antagonist dosing solution (0.6 mg/mL) was made on Day 2 by diluting the entire 5 mg in the sealed vial with 8.3 mL of sterile saline and aliquoting out ˜1.1 mL in each of seven 2 mL cryovials and freezing at −20 C. Four vials were used in the experiment, each thawed within 1 hour of use. Three vials remain frozen.
Dosing Formulations and Vehicle Storage & Stability: Saline vehicle is stable at 4 C for months. Peptide dosing solutions were made up and used fresh daily. […] MLA frozen “stock” solutions were stable for up to 1 month.

In data set [4] the test system is blood brain barrier (BBB). Description: Intravital microscopy of BBB permeability and lymphocyte adhering/rolling in pial venules. Type of data set: in vivo, C57 BL/6J mice. Conditions: P3C i.p., 24 hours. The source says:
Whether intranasal infection with Streptococcus pyogenes would induce blood-brain barrier permeability in C57 BL/6J mice by a TLR-dependent mechanism was examined. Immediately following craniotomy, mice were placed under an intravital microscope to study vascular permeability and leukocytes. Permeability of cerebral blood vessels was observed using FITC-dextran fluorescent dye and, tracing of leukocytes is observed by labeling such cells with Rhodamine-6G. Intranasal infection with Streptococcus pyogenes (gram positive) increased BBB permeability (FIG. 4) and the number of adherent or rolling lymphocytes (FIG. 4) within 24 hours post-infection, compared to saline treated controls.
Methods: To test the hypothesis that intranasal infection may increase BBB permeability, we exposed mice to GAS via intranasal infection with Streptococcus pyogenes (GAS). We assessed BBB permeability using intravital microscopy, and we characterized the immune response to GAS using flow cytometric analysis of nasal associated lymphoid tissue (NALT), spleen, and brain.
Intranasal infection: Isoflurane gas was employed to briefly anesthetize mice (1-2 minutes). Once anesthetized, 7.5 uL of streptococcal bacterial suspension (OD600=0.5-0.6) was placed on each nares (outer nostril) of mouse. Control mice received intranasal inoculation with vehicle (PBS). The droplets were inhaled into nasal sinuses. This small volume avoids inoculation of the lungs, but reproducibly results in colonization of nasal-associated lymphoid tissue (NALT, Park 2003; Wang 2010).
Intraperitoneal injection: The TLR 1/2 agonist, Pam-3-Cys (25 ug/mouse; Pam3CSK4, InvivoGen, San Diego Calif.) was intraperitoneally (right side) injected into mice 24 hours before intravital microscopy. P3C causes immune cell activation and polycolonal expansion of B-lymphocytes by Toll-Like receptor ligation (Newell 2010). Control mice received equal volume of vehicle (PBS) intraperitoneally.
MHC class II-targeted proprietary peptide (TPP, Elim Biopharmaceuticals Inc., Hayward Calif.; also see Newell 2010) was administered intraperitoneally (5 ug/mouse, left side), sometimes in conjunction with P3C (right side). TPP was dissolved in DMSO for a final concentration of 2.5% DMSO in PBS. Control mice received vehicle (2.5% DMSO in PBS) intraperitoneally.
Preparation of Mice: Mice were anesthetized with an (i.p.) injection of 50% urethane (Sigma-Aldrich, U2500) in PBS ([…]) and maintained on heating pad. Anesthetic plane was assessed throughout preparation and experiments, by response to toe pinch. If needed, urethane supplement was given at 10% of original dose volume. To prepare mice tails for intravenous (i.v.) dye injection we maintained anesthetized mice on a heating pad for 10-15 minutes, and then briskly wiped tails (toward tail-end) with 70% ethanol wipes to remove scales/hair and increase vasodilation. Immediately following tail wiping, Fluorescein dextran 10 kDa (10 mg/mL, Sigma-Aldrich, FD10S) was administered (2 uL/g mouse) via right lateral tail vein and, Rhodamine 6G (0.2 mg/mL, Sigma-Aldrich, 83697) was administered (1.6 uL/g mouse) via left lateral tail vein. When needed, tail was wiped multiple times to ensure clear visualization of tail veins. Following successful (i.v.) injection of dyes, mice underwent craniotomy.
Craniotomy: A craniotomy (removal of a small area of skull) was performed to expose the cerebrum and allow imaging of cerebral microvasculature (specifically pial vessels of pia mater). First, an incision across the midline of the scalp was made to expose the right parietal bone. The skull was then carefully marked with a waterproof marker, designating the area, 1 mm posterior from the Bregma and 4 mm lateral from the midline, to be removed (craniotomy diameter: 2.5 mm). Next, the craniotomy was performed with a drill ensuring the dura mater was not cut. […]

Consider 5′-tcgtcgttttgtcgttttgtcgtt-3′ [CpG], for which the “relative level of expression of nAChR per cell” value with splenic B cells [1] is “increases”. Further, in the data set with splenic B cells [1] (untreated 9%), the “total splenocytes that express alpha 7 nAChR” value amounted to 37.6%.
On to `CCN1C[C@]2(COC(=O)c3ccccc3N3C(=O)C[C@H](C)C3=O)CC[C@H](OC)[C@@]34[C@@H]5C[C@H]6[C@H](OC)[C@@H]5[C@](O)(C[C@@H]6OC)[C@@](O)([C@@H](OC)[C@H]23)[C@@H]14` [MLA, methyllycaconitine, reference compound], for which the “effect of α7nAChR antagonist on CAP-induced decrease in B cell expansion” value in the data set with CLIP+ B cells was “reversed”; in the data set on CLIP+ B cells (listed as MCA), “prevented”. Further, the “effect of MLA on Peptide induced reduction in CLIP+ B cells” value with splenic B cells [2] (CFA treated mice, MLA 6 mg/kg IP 1 hour before Peptide) is reported as “reversed”. Moreover, the “percentage of splenic B cells” value with splenic B cells [2] (CFA treated, Peptide treated (2 mg/kg) and treated with MLA (6 mg/kg IP)) was 44.8%. Moreover, the “effect of α7nAChR antagonist on CAP-induced CD8+ T cell expansion” value in the data set on CD8+ T cells is recorded as “reversed”; with CD8+ T cells (listed as MCA) it was “blocked”. Besides, the “stability of frozen stock solutions” value in data set [3] is on record as “up to 1 month”.
Regarding Pam-3-Cys [P3C, reference compound], the “largest observed diameter of adherent lymphocytes” value in data set [4] is reported as 15 um. In addition, in data set [4] (vs control, p<0.01), the “number of rolling lymphocytes” value is recorded as “significantly increased”. Besides, the “number of adherent lymphocytes” value in data set [4] (vs control, p<0.05) was “significantly increased”. Moreover, the “average diameter of adherent lymphocytes” value in data set [4] (control 5 um) is 10 um.
